Test results from ChEMBL document CHEMBL1136294, “Aryloxazolidinediones: identification of potent orally active PPAR dual alpha/gamma agonists” (Bioorg Med Chem Lett, 2003).
pEC50, pIC50: −log10 of the molar value.

Assays:
[1] = biological target: T1, Peroxisome proliferator-activated receptor delta (Homo sapiens, UniProt Q03181)
T1 sequence (Q03181 whole entry): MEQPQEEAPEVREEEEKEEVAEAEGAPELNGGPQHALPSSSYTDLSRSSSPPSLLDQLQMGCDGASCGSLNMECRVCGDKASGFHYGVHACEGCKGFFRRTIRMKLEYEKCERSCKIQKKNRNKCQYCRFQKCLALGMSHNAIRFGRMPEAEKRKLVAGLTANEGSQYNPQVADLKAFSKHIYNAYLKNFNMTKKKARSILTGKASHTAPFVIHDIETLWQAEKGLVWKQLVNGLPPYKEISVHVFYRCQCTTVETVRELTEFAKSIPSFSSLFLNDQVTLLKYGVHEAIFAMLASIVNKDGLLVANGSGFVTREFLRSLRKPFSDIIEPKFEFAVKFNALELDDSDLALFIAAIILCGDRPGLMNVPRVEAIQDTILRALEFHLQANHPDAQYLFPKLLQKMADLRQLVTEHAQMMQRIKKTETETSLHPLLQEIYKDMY
Description: In vitro binding affinity was tested towards human Peroxisome proliferator activated receptor delta

[2] = biological target: T1, Peroxisome proliferator-activated receptor delta; assay type: functional
Description: In vitro activity in human Peroxisome proliferator activated receptor delta-transactivation assay

[3] = in vivo; settings: Sprague-Dawley, rat, po, 2 mg/kg
Description: Clearance in Sprague-Dawley rats after 2mg/kg oral dose

[4] = in vivo; settings: Sprague-Dawley, rat, po
Description: Oral bioavailability in rat (Sprague-Dawley)

[5] = species on record: Rattus norvegicus; settings: in vivo
Description: Area under curve in SD rats

[6] = biological target: T2, Peroxisome proliferator-activated receptor alpha (Homo sapiens, UniProt Q07869)
T2 sequence (Q07869 whole entry): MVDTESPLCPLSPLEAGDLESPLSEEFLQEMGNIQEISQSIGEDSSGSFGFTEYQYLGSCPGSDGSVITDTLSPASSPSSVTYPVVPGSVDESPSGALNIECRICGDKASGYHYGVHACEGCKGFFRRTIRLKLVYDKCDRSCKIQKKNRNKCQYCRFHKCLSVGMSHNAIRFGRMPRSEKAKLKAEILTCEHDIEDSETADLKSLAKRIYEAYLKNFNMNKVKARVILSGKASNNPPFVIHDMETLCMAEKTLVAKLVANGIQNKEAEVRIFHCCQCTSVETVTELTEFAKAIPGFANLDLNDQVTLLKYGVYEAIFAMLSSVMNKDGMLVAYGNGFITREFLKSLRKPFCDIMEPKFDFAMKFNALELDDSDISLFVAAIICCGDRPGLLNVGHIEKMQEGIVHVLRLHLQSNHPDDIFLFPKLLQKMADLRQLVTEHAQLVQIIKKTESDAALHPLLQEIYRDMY
Description: In vitro binding affinity was tested towards human Peroxisome proliferator activated receptor alpha

[7] = biological target: T2, Peroxisome proliferator-activated receptor alpha; assay type: functional
Description: In vitro activity in human Peroxisome proliferator activated receptor alpha-transactivation assay

[8] = in vivo; settings: Sprague-Dawley, rat
Description: Half life period in SD rats

[9] = species on record: Rattus norvegicus; settings: in vivo, po
Description: Area under curve for a 2-mpk po dose in SD rats

SMILES	pIC50 [1]	pEC50 [2]	also measured
CCCc1cc(-c2noc3ccccc23)ccc1OCCCOc1cccc(C2SC(=O)NC2=O)c1 (stereo unspecified)	6.85		
CCCc1cc(C(=O)c2ccc(Cl)cc2)ccc1OCCCOc1cccc(C2SC(=O)NC2=O)c1 (stereo unspecified)	< 4.30	< 5.52	
CCCc1cc(C(=O)C2CCCCC2)ccc1OCCCOc1cccc(C2SC(=O)NC2=O)c1 (stereo unspecified)	< 4.30	< 5.52	CL/F [3]: 29.5 mL/min/kg; bioavailability [4]: 7.8%; AUC [5]: 0.07 µM
CCCc1cc(OC2CCCCCC2)ccc1OCCCOc1cccc(C2SC(=O)NC2=O)c1 (stereo unspecified)	< 4.30		
CCCc1cc(OC2CCCC2)ccc1OCCCOc1cccc(C2SC(=O)NC2=O)c1 (stereo unspecified)	6.04		
CCCc1cc(C2CCCCCC2)ccc1OCCCOc1cccc(C2OC(=O)NC2=O)c1 (stereo unspecified)	< 4.30	< 5.52	
CCCc1cc(C2CCC(=O)CC2)ccc1OCCCOc1cccc(C2OC(=O)NC2=O)c1 (stereo unspecified)	< 4.30		
CCCc1cc(C2CCCCC2)ccc1OCCCOc1cccc(C2OC(=O)NC2=O)c1 (stereo unspecified)	< 4.30	< 5.52	
CCCc1cc(C2CCC(C)(C)CC2)ccc1OCCCOc1cccc(C2OC(=O)NC2=O)c1 (stereo unspecified)	< 4.30	< 5.52	
CCCc1cc(-c2ccccc2)ccc1OCCCOc1cccc(C2OC(=O)NC2=O)c1 (stereo unspecified)	5.82	< 5.52	
CCCc1cc(C(=O)c2ccccc2)ccc1OCCCOc1cccc(C2SC(=O)NC2=O)c1 (stereo unspecified)	6.77	< 5.52	
CCCc1cc(C2CCOCC2)ccc1OCCCOc1cccc(C2OC(=O)NC2=O)c1 (stereo unspecified)	< 4.30		
CCCc1cc(C2CCC(F)(F)CC2)ccc1OCCCOc1cccc(C2OC(=O)NC2=O)c1 (stereo unspecified)	< 4.30	< 5.52	
CCCc1cc(C2CCC(O)CC2)ccc1OCCCOc1cccc(C2OC(=O)NC2=O)c1 (stereo unspecified)	< 4.30		
CCCc1ccccc1OCCCOc1cccc(C2OC(=O)NC2=O)c1 (stereo unspecified)	< 5.30	< 5.52	pIC50 [6]: 7.10; pEC50 [7]: 7.28; half-life [8]: 3.6 h; bioavailability [4]: 27%; AUC [9]: 1.1 µM
CCCc1cc(CC2CCCCC2)ccc1OCCCOc1cccc(C2SC(=O)NC2=O)c1 (stereo unspecified)	< 4.30	< 5.52	
CCCc1cc(OC2CCCCC2)ccc1OCCCOc1cccc(C2SC(=O)NC2=O)c1 (stereo unspecified)	< 4.30	< 5.52	bioavailability [4]: 10%; AUC [5]: 0.3 µM
CCCc1cc(C=C2CCCCC2)ccc1OCCCOc1cccc(C2SC(=O)NC2=O)c1 (stereo unspecified)	< 4.30	< 5.52	
CCCc1cc(C2CCCC2)ccc1OCCCOc1cccc(C2OC(=O)NC2=O)c1 (stereo unspecified)	5.41		
